Here are results for 49 sequences from article PMC314469, “Protein Interaction Networks by Proteome Peptide Scanning” (PLoS Biology, 2004).

The test system of this assay is Myo5 SH3 domain. Briefly: SPOT analysis of cellulose-bound peptides (WISE), Myo5 SH3 domain (Dataset S4). The format is binding, Saccharomyces cerevisiae. The note with it: for The normalized value in BLU units: Myo5 SH3 domain.
Setting [1] is: SPOT analysis of membrane-synthesized peptides probed with Myo5 SH3 domain, normalized value.
Where [2] appears, read: SPOT analysis of membrane-bound peptides, normalized value (see methods).
The mark [3] stands for this setting: SPOT analysis of cellulose-bound peptides probed with Myo5 SH3 domain, normalized value.
[4] abbreviates: SPOT analysis of cellulose-bound 14-mer yeast proteome peptides, normalized value, mean where the peptide was synthesized more than once.

For TTNSRLCPSSPSSS, under setting [1], the “The normalized value in BLU units (SPOT analysis, Myo5 SH3)” value came out at 160.8 BLU.
For FQYTKGRPLAPKGA, the “The normalized value in BLU units” value under setting [2] was determined as 235.2 BLU.
As to HICDKMNPASPQYF, the “The normalized value in BLU units” value under setting [2] stood at 159.1 BLU.
FASQLRKPRAPMRN: the “The normalized value in BLU units (SPOT analysis, Myo5 SH3)” value under setting [3] is given as 459.9 BLU.
With MKPQKIAPKFPGTV, the “The normalized value in BLU units” value under setting [2] is listed as 415.8 BLU.
As to HATLYWAPVSPLKS, under setting [4], the “The normalized value in BLU units” value is recorded as 151.3 BLU.
HFYEYVYPSLPFIE: the “The normalized value in BLU units (SPOT analysis, Myo5 SH3)” value under setting [3] amounted to 152.0 BLU.
Still for that read-out and setting: the result for GWEPFSLPKDPKVV reads 75.9 BLU.
Take TPYQLLSPILPVLL: the “The normalized value in BLU units” value under setting [4] was found to be 287.1 BLU.
For the sequence WSQMRMNPTNPDWI, the “The normalized value in BLU units (SPOT analysis, Myo5 SH3)” value under setting [1] is reported as 81.2 BLU.
For LQESKTVPQSPKKP, the “The normalized value in BLU units (SPOT analysis, Myo5 SH3)” value under setting [1] amounted to 159.2 BLU.
On to SEAKRKFPEAPEVP, for which, under setting [4], the “The normalized value in BLU units” value was determined as 392.6 BLU.
For KKHDKLHPNYPSVK, under setting [1], the “The normalized value in BLU units (SPOT analysis, Myo5 SH3)” value stood at 406.8 BLU.
SENYLVKPTIPGTT: under setting [3], the “The normalized value in BLU units (SPOT analysis, Myo5 SH3)” value was 61.5 BLU.
Take DLSVHTSPHGPIGS: the “The normalized value in BLU units” value under setting [4] is recorded as 186.1 BLU.
The same measure, in the same setting: the figure for MTVPRNRPMAPFGT is 595.6 BLU.
On to ELQIRYKPTPPLKK, for which the “The normalized value in BLU units” value under setting [2] is listed as 171.0 BLU.
Take SLLIHSLPRKPLLM: under setting [3], the “The normalized value in BLU units (SPOT analysis, Myo5 SH3)” value turned out to be 314.4 BLU.
Turning to RRHNRQHPPYPHSG, the “The normalized value in BLU units” value under setting [2] was found to be 1287.6 BLU.
Take SLAVYNIPLFPDDP: the “The normalized value in BLU units (SPOT analysis, Myo5 SH3)” value under setting [3] is recorded as 91.7 BLU.
Turning to LNRQKNYPDAPAIF, the “The normalized value in BLU units (SPOT analysis, Myo5 SH3)” value under setting [1] turned out to be 86.4 BLU.
On the same count and under the same terms, the figure for PANPKILPKIPSGA is 164.4 BLU.
In the case of LPQQHLSPLIPIAI, the “The normalized value in BLU units” value under setting [4] was found to be 45.3 BLU.
Take PLPTFSAPSLPQQS: under setting [4], the “The normalized value in BLU units” value stood at 46960.5 BLU.
On the same count and under the same terms, the result for QEISLIDPSTPDKA reads 155.1 BLU.
As for KLNKRVLPSKPKKS, the “The normalized value in BLU units” value under setting [2] turned out to be 918.8 BLU.
Consider ILERKNIPRQPAIR, for which the “The normalized value in BLU units” value under setting [2] is given as 602.9 BLU.
For the sequence VFSCLRDPVIPIKL, the “The normalized value in BLU units” value under setting [4] is reported as 132.4 BLU.
For IPVGYVTPKFPSLY, the “The normalized value in BLU units” value under setting [4] is given as 21.6 BLU.
Regarding PIVKKNVPKPPPLV, under setting [1], the “The normalized value in BLU units (SPOT analysis, Myo5 SH3)” value was 153.6 BLU.
With LASPFHDPILPRRT, the “The normalized value in BLU units” value under setting [4] amounted to 288.3 BLU.
For the sequence ALNNWILPSTPHIQ, the “The normalized value in BLU units (SPOT analysis, Myo5 SH3)” value under setting [3] was determined as 169.3 BLU.
On the same count and under the same terms, the result for DLLGLSTPQSPTNS reads 91.9 BLU.
Take LNLSKDAPVPPAPE: under setting [2], the “The normalized value in BLU units” value amounted to 161.0 BLU.
DEFTLDLPRIPSLE: the “The normalized value in BLU units” value under setting [4] amounted to 180.8 BLU.
Turning to GLHDYTSPASPKQT, the “The normalized value in BLU units (SPOT analysis, Myo5 SH3)” value under setting [3] is reported as 129.7 BLU.
For the sequence VAWCHDSPKPPSDR, the “The normalized value in BLU units” value under setting [4] came out at 30.6 BLU.
Regarding TTRRKKDPNAPKRR, the “The normalized value in BLU units” value under setting [2] was determined as 999.1 BLU.
With TAPIHSTPKPPPND, the “The normalized value in BLU units” value under setting [4] worked out at 77.7 BLU.
Consider FKVYRWNPDEPSAK, for which the “The normalized value in BLU units (SPOT analysis, Myo5 SH3)” value under setting [1] was 99.0 BLU.
On the same count and under the same terms, the figure for PQTMRQAPKRPDAD is 3257.1 BLU.
In the case of ALWAKFFPEKPLNI, the “The normalized value in BLU units” value under setting [4] came to 154.0 BLU.
In the case of SIIPRIFPSTPGTI, the “The normalized value in BLU units (SPOT analysis, Myo5 SH3)” value under setting [1] was found to be 368.8 BLU.
Regarding VSKAKLQPAKPQFT, the “The normalized value in BLU units” value under setting [2] is 252.3 BLU.
Take KPSLWEAPQNPPYS: the “The normalized value in BLU units” value under setting [4] is on record as 152.4 BLU.
Consider YVNPRNLPSVPNGL, for which, under setting [1], the “The normalized value in BLU units (SPOT analysis, Myo5 SH3)” value stood at 179.8 BLU.
Turning to SFRKLASPSNPNFF, the “The normalized value in BLU units (SPOT analysis, Myo5 SH3)” value under setting [3] was 208.8 BLU.
Regarding REYIKSLPMYPAAP, the “The normalized value in BLU units (SPOT analysis, Myo5 SH3)” value under setting [1] was 70.4 BLU.
The same measure, in the same setting: the result for EVLRKYIPGEPEFL reads 168.7 BLU.
